# Measured values taken from publication PMC9740910, “Influence of Degree of Polymerization of Low-Molecular-Weight Chitosan Oligosaccharides on the α-Glucosidase Inhibition” (Molecules, 2022).
# Target: Saccharomyces cerevisiae α-glucosidase (Saccharomyces cerevisiae, UniProt P53341)
# Assay: Inhibition kinetic of α-glucosidase (Lineweaver–Burk and Michaelis–Menten fits)
# Type: biochemical
# Procedure: The data were fitted into both the Lineweaver–Burk and the Michaelis–Menten equation to determine the inhibition mode of the α-glucosidase for each of the COS mixtures.
# The kinetic parameters, i.e., KM, Vmax, and the kinetic constants (Ki and Kii), were determined by fitting the data into the Michaelis–Menten equation [40] using the GraphPad Prism 8.0 software programs (GraphPad Inc., La Jolla, CA, USA) for Windows. The Michaelis–Menten equation, which expresses a relationship between the substrate concentration and the reaction velocity is given as follows:(3) V=Vmax [S]/ KM(1+[I]/Ki)+[S](1+[I]/Kii) where Ki represents the kinetic binding constants of the free enzymes, Kii represents the kinetic binding constant of the enzyme–substrate complex, V represents the velocity, Vmax represents the maximum velocity, KM represents the Michaelis’ constant, [S] represents the substrate concentration, and [I] represents the inhibitor concentration. The α values were calculated to determine the inhibition modes and the inhibitor binding preference.
# Chain of Saccharomyces cerevisiae α-glucosidase (P53341 whole entry): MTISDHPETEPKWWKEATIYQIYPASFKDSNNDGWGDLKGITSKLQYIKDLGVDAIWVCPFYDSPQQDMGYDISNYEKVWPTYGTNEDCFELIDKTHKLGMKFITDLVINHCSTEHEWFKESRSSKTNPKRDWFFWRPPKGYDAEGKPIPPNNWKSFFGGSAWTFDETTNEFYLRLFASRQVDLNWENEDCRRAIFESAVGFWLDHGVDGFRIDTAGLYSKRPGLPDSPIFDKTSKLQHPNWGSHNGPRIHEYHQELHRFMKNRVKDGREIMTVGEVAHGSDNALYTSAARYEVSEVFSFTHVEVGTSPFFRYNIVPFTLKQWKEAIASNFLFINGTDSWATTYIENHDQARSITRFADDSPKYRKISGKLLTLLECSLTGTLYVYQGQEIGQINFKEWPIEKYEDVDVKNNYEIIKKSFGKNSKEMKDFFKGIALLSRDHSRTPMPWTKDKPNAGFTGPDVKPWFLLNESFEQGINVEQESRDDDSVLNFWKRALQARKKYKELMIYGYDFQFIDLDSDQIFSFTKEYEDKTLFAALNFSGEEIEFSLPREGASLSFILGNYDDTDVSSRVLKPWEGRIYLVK
compound,measurement,value
"C[C@H]1O[C@H](O[C@H]2[C@H](O)[C@@H](O)[C@@H](O[C@H]3[C@H](O)[C@@H](O)C(O)O[C@@H]3CO)O[C@@H]2CO)[C@H](O)[C@@H](O)[C@@H]1N[C@H]1C=C(CO)[C@@H](O)[C@H](O)[C@H]1O (some centres unmarked) [Acarbose, acarbose]",Type of Inhibition,Competitive
same,α value from mixed-mode inhibition,1.86
